The values that follow come from patent US20140171404A1, “Autotaxin inhibitors” (NOVARTIS AG, priority 2012, published 2014).

Molecules are shown by their SMILES. Where two headings read alike, the source gives them in different places.

The assay has as its target T1, Recombinant human ATX (Homo sapiens, UniProt Q13822).
T1 construct: made in house; host or cells: human embryonic kidney (HEK) cells
Description: Assessing ATX inhibition: released choline, Amplex Red fluorescence. In kind it is biochemical. Here is the method: LPC (oleoyl (18:1)) was purchased from Avanti Polar Lipids (Alabaster; AL) and solubilized in methanol to 20 mM. Amplex Red was obtained from Invitrogen Life Technologies (Paisley, UK) and dissolved in DMSO to 10 mM. Choline oxidase and horseradish peroxidase (HRP) were obtained from Sigma Aldrich (Dorset, UK) and dissolved in HBSS to 20 U/ml and 200 U/ml respectively. All reagents were stored at −20° C. in single use aliquots. All experimental measurements were performed in assay buffer made up immediately prior to use (HBSS, 0.01% BSA essentially fatty acid free).
Recombinant human ATX was prepared at Novartis (Basel, CH) in a human embryonic kidney (HEK) cell preparation, and stored in single use aliquots of […] (26 μM) stocks stored at −80° C.
All experimental measurements were performed in black 384 well polystyrene (low volume, round bottom, Corning (3676)) plates. PerkinElmer EnVision (Fluorescence Intensity/Absorbance Monochromator) or Tecan Infinite 200 PRO series plate reader was used to detect change in fluorescent intensity.
ATX activity was determined by measurement of released choline in reactions containing ATX (10 nM), choline oxidase (0.1 U/ml), HRP (100 U/ml), amplex red (50 μM) and LPC 18:1 (10 μM). Compounds of the invention were prepared as 10 point serial dilutions from 1 μM in duplicate and pre-incubated with ATX at 37° C. for 20 minutes prior to the addition of remaining reagents. The liberated choline was measured from changes in fluorescence intensity (λex 530 nm, λem 590 nm) of the product resurofin at 37° C. every 2 minutes over a 40-minute period. ATX activity was measured as a slope of the linear portion of the progress curve, typically between 14 to 24 minutes.
Slope data was exported to Graphpad prism (Graphpad software, San Diego, Calif.) where data was fitted to equation 1.
Y=Bottom+(Top−Bottom)/(1+10̂((Log IC50−X)*HillSlope)) Equation 1: […]

Where [1] appears, read: ATX 10 nM, LPC 18:1 10 μM, pre-incubated with ATX at 37° C. for 20 minutes, Table 1, exemplified compounds, read-out: IC50.

Take `O=C(CCCc1c[nH]nn1)NC1CCN(C(=O)OCc2cc(F)cc(Cl)c2)CC1` [Example 37, 3-Chloro-5-fluorobenzyl 4-(4-(1H-1,2,3-triazol-4-yl)butanamido)piperidine-1-carboxylate]: the IC50 under setting [1] came out at 55 nM.

Take `O=C(CCCc1c[nH]nn1)NC1CCN(C(=O)/C=C/c2cc(Cl)cc(Cl)c2)CC1` [Example 38, (E)-N-(1-(3-(3,5-Dichlorophenyl)acryloyl)piperidin-4-yl)-4-(1H-1,2,3-triazol-4-yl)butanamide]: the IC50 under setting [1] was determined as 21 nM.

On to `O=C(CCCc1c[nH]nn1)NC1CCN(C(=O)/C=C/c2ccc(Cl)cc2Cl)CC1` [Example 39, (E)-N-(1-(3-(2,4-Dichlorophenyl)acryloyl)piperidin-4-yl)-4-(1H-1,2,3-triazol-4-yl)butanamide], for which the IC50 under setting [1] is 77 nM.

As for `O=C(O)CCCCCCC(=O)NC1CCN(C(=O)OCc2cc(Cl)cc(Cl)c2)CC1` [Example 40, 8-((1-(((3,5-Dichlorobenzyl)oxy)carbonyl)piperidin-4-yl)amino)-8-oxooctanoic acid], the IC50 under setting [1] was found to be 135 nM.

For the molecule `O=C(CCCc1cnn[nH]1)NCC1CCN(C(=O)OCc2cc(Cl)cc(Cl)c2)CC1` [Example 41, 3,5-Dichlorobenzyl 4-((4-(1H-1,2,3-triazol-5-yl)butanamido)methyl)piperidine-1-carboxylate], the IC50 under setting [1] came out at 18 nM.

Turning to `O=C(CCCc1c[nH]nn1)NC1CCN(C(=O)CCc2cc(Cl)cc(Cl)c2)CC1` [Example 42, N-(1-(3-(3,5-Dichlorophenyl)propanoyl)piperidin-4-yl)-4-(1H-1,2,3-triazol-4-yl)butanamide], the IC50 under setting [1] turned out to be 119 nM.

Turning to `O=C(CCCc1c[nH]nn1)NC1CCN(C(=O)CCc2ccc(Cl)cc2Cl)CC1` [Example 43, N-(1-(3-(2,4-Dichlorophenyl)propanoyl)piperidin-4-yl)-4-(1H-1,2,3-triazol-4-yl)butanamide], the IC50 under setting [1] was 113 nM.

In the case of `N#Cc1cc(Cl)cc(COC(=O)N2CCC(NC(=O)CCCc3c[nH]nn3)CC2)c1` [Example 44, 3-Chloro-5-cyanobenzyl 4-(4-(1H-1,2,3-triazol-4-yl)butanamido)piperidine-1-carboxylate], the IC50 under setting [1] stood at 8 nM.

With `O=C(CCCc1c[nH]nn1)NC1CC2CCC(C1)N2C(=O)OCc1cc(Cl)cc(Cl)c1` (centres unmarked) [Example 45, 3,5-Dichlorobenzyl 3-(4-(1H-1,2,3-triazol-4-yl)butanamido)-8-azabicyclo[3.2.1]octane-8-carboxylate], the IC50 under setting [1] came to 555 nM.

As for `O=C(CCCc1c[nH]nn1)NC1CCCN(C(=O)OCc2cc(Cl)cc(Cl)c2)CC1` (centres unmarked) [Example 46, 3,5-Dichlorobenzyl 4-(4-(1H-1,2,3-triazol-4-yl)butanamido)azepane-1-carboxylate], the IC50 under setting [1] was 731 nM.

For the molecule `O=C(NC1CC2CCC(C1)N2C(=O)CCCc1c[nH]nn1)OCc1cc(Cl)cc(Cl)c1` (centres unmarked) [Example 47, 3,5-Dichlorobenzyl (8-(4-(1H-1,2,3-triazol-4-yl)butanoyl)-8-azabicyclo[3.2.1]octan-3-yl)carbamate], the IC50 was determined as 3160 nM.

Take `O=C(NC1CCCN(C(=O)CCCc2c[nH]nn2)CC1)OCc1cc(Cl)cc(Cl)c1` (centres unmarked) [Example 48, 3,5-Dichlorobenzyl (1-(4-(1H-1,2,3-triazol-4-yl)butanoyl)azepan-4-yl)carbamate]: the IC50 under setting [1] came out at 791 nM.

Regarding `O=C(CCCc1c[nH]nn1)NC1CN(C(=O)OCc2cc(Cl)cc(Cl)c2)C1` [Example 50, 3,5-Dichlorobenzyl 3-(4-(1H-1,2,3-triazol-4-yl)butanamido)azetidine-1-carboxylate], the IC50 under setting [1] amounted to 12 nM.

Regarding `Cc1cc(C)cc(COC(=O)N2CCC(NC(=O)CCCc3c[nH]nn3)CC2)c1` [Example 51, 3,5-Dimethyl benzyl 4-(4-(1H-1,2,3-triazol-4-yl)butanamido)piperidine-1-carboxylate], the IC50 under setting [1] turned out to be 6 nM.

For `O=C(NC1CCN(C(=O)CCCCc2c[nH]nn2)CC1)OCc1cc(Cl)cc(Cl)c1` [Example 52, 3,5-Dichlorobenzyl (1-(5-(1H-1,2,3-triazol-4-yl)pentanoyl)piperidin-4-yl)carbamate], the IC50 under setting [1] was determined as 42 nM.

On to `O=C(CCCc1c[nH]nn1)NC1CCN(C(=O)OCc2ccc(C(F)(F)F)cc2)CC1` [Example 53, 4-(Trifluoromethyl)benzyl 4-(4-(1H-1,2,3-triazol-4-yl)butanamido)piperidine-1-carboxylate], for which the IC50 under setting [1] amounted to 40 nM.

On to `O=C(CCCc1c[nH]nn1)NC1CCN(C(=O)CCc2ccc(C(F)(F)F)cc2)CC1` [Example 54, 4-(1H-1,2,3-Triazol-4-yl)-N-(1-(3-(4-(trifluoromethyl)phenyl)propanoyl)piperidin-4-yl)butanamide], for which the IC50 under setting [1] is 87 nM.

As for `O=C(CCCc1c[nH]nn1)NC1CCN(C(=O)COc2cc(Cl)cc(Cl)c2)CC1` [Example 55, N-(1-(2-(3,5-Dichlorophenoxy)acetyl)piperidin-4-yl)-4-(1H-1,2,3-triazol-4-yl)butanamide], the IC50 under setting [1] worked out at 154 nM.

As to `Cc1cc(Cl)cc(COC(=O)N2CCC(NC(=O)CCCc3c[nH]nn3)CC2)c1` [Example 56, 3-Chloro-5-methylbenzyl 4-(4-(1H-1,2,3-triazol-4-yl)butanamido)piperidine-1-carboxylate], under setting [1], the IC50 was 10 nM.

Consider `O=C(CCc1cnn[nH]1)NCC1CCN(C(=O)OCc2cc(Cl)cc(Cl)c2)CC1` [Example 57, 3,5-Dichlorobenzyl 4-((3-(1H-1,2,3-triazol-5-yl)propanamido)methyl)piperidine-1-carboxylate], for which, under setting [1], the IC50 is 17 nM.

Turning to `O=C(CCCc1c[nH]nn1)NC1CCN(C(=O)OCc2ccc(Cl)cc2Cl)CC1` [Example 58, 2,4-Dichlorobenzyl 4-(4-(1H-1,2,3-triazol-4-yl)butanamido)piperidine-1-carboxylate], the IC50 under setting [1] stood at 206 nM.

For the molecule `O=C(CCCc1c[nH]nn1)NC1CCN(C(=O)OCCc2cc(Cl)cc(Cl)c2)CC1` [Example 59, 3,5-Dichlorophenethyl 4-(4-(1H-1,2,3-triazol-4-yl)butanamido)piperidine-1-carboxylate], under setting [1], the IC50 is 24 nM.

For `O=C(CCC1CCN(C(=O)OCc2cc(Cl)cc(Cl)c2)CC1)NCc1c[nH]nn1` [Example 60, 3,5-Dichlorobenzyl 4-(3-(((1H-1,2,3-triazol-4-yl)methyl)amino)-3-oxopropyl)piperidine-1-carboxylate], under setting [1], the IC50 was 7 nM.

As for `O=C(CC1CCN(C(=O)OCc2cc(Cl)cc(Cl)c2)CC1)NCCc1c[nH]nn1` [Example 61, 3,5-Dichlorobenzyl 4-(2-((2-(1H-1,2,3-triazol-4-yl)ethyl)amino)-2-oxoethyl)piperidine-1-carboxylate], the IC50 under setting [1] was determined as 15 nM.

For the molecule `Cc1cc(COC(=O)N2CCC(NC(=O)CCCc3c[nH]nn3)CC2)cc(C(F)(F)F)c1` [Example 62, 3-Methyl-5-(trifluoromethyl)benzyl 4-(4-(1H-1,2,3-triazol-4-yl)butanamido)piperidine-1-carboxylate], the IC50 under setting [1] turned out to be 5 nM.

On to `O=C(CCCc1c[nH]nn1)NC1CCN(C(=O)OCc2cc(Br)cc(C(F)(F)F)c2)CC1` [Example 63, 3-Bromo-5-(trifluoromethyl)benzyl 4-(4-(1H-1,2,3-triazol-4-yl)butanamido)piperidine-1-carboxylate], for which the IC50 under setting [1] stood at 3 nM.

With `N#Cc1cc(Cl)cc(COC(=O)N2CCC(NC(=O)CCCCc3c[nH]nn3)CC2)c1` [Example 64, 3-Chloro-5-cyanobenzyl 4-(5-(1H-1,2,3-triazol-4-yl)pentanamido)piperidine-1-carboxylate], the IC50 under setting [1] came to 8 nM.

Regarding `N#Cc1cc(Cl)cc(COC(=O)N2CCC(NC(=O)CCc3c[nH]nn3)CC2)c1` [Example 65, 3-Chloro-5-cyanobenzyl 4-(3-(1H-1,2,3-triazol-4-yl)propanamido)piperidine-1-carboxylate], under setting [1], the IC50 was 26 nM.

Take `N#Cc1cc(COC(=O)N2CCC(NC(=O)CCCc3c[nH]nn3)CC2)cc(C(F)(F)F)c1` [Example 66, 3-Cyano-5-(trifluoromethyl)benzyl 4-(4-(1H-1,2,3-triazol-4-yl)butanamido)piperidine-1-carboxylate]: under setting [1], the IC50 was found to be 4 nM.

Consider `O=C(CCCCCc1c[nH]nn1)NC1CCN(C(=O)OCc2cc(Cl)cc(Cl)c2)CC1` [Example 67, 3,5-Dichlorobenzyl 4-(6-(1H-1,2,3-triazol-4-yl)hexanamido)piperidine-1-carboxylate], for which the IC50 under setting [1] turned out to be 4 nM.

As to `O=C(OCc1cc(Cl)cc(Cl)c1)N1CCC(CCCCCc2c[nH]nn2)CC1` [Example 68, 3,5-Dichlorobenzyl 4-(5-(1H-1,2,3-triazol-4-yl)pentyl)piperidine-1-carboxylate], the IC50 under setting [1] came to 318 nM.

Take `N#Cc1cc(Cl)cc(COC(=O)N2CCC(CCCCCc3c[nH]nn3)CC2)c1` [Example 69, 3-Chloro-5-cyanobenzyl 4-(5-(1H-1,2,3-triazol-4-yl)pentyl)piperidine-1-carboxylate]: the IC50 under setting [1] was 69 nM.

One may read the IC50 as the midpoint of a concentration-inhibition curve.
